Patent publication US20130267485A1, “Pharmaceutical Combination of Resveratrol and Progestin to Treat and/or Prevent Myoma and/or Endometriosis” (LIBBS FARMACEUTICA LTDA., priority 2010, published 2013)

Experiments:
[1] = test system: patients with intramural myoma, adenomyosis and endometriosis; test: Uterus volume before and after treatment, 30 patients (plus comparative resveratrol-only patients); type: in vivo, human
Protocol: An experiment was carried out with 30 patients treated with combinations of drospirenone, ethinyl estradiol and resveratrol, as well as with combinations of gestinol and resveratrol, evaluating the volume of the uterus before and after the treatment. In the comparative studies with three patients A, B and C, showing intramural myoma treated only with resveratrol, there was observed a 32% increase for patient A, treated during 12 months; 27% increase for patient B, treated during 3 months; and 22% increase for patient C, treated during 1 month.

[2] = test system: stromal cells extracted from human endometrium tissue; test: Antiproliferative activity, MTT colorimetric method; type: cell-based
Protocol: Negative control: stromal cells of endometrioma incubated with 200 μL of culture medium supplemented with 10% fetal bovine serum and 0.1% DMSO. After calculating the concentrations, the test substances were diluted in 100% DMSO, with stock solution concentrations being of 1 mM to ethinyl estradiol and 10 mM to Dienogest, Resveratrol and Danazol. The use solution was obtained by 1:10 serial dilutions in culture medium supplemented with 10% of fetal bovine serum and 1% of antibiotic/antimycotic. The final concentration of DMSO in the solutions was 0.1%. Endometrium tissues were obtained from 2 voluntary donors by means of videolaparoscopy, by signing the respective terms of consent and ages between 18 and 45 years. A fragment was taken from tissue samples for histological confirmation of endometriosis and the remaining was packaged in sterile flask containing culture medium DMEM/Ham's F12 (Gibco®) with ampicillin and streptomycin (Merck®) antibiotics, and they were taken immediately to the laboratory. […] The resulting suspension was centrifuged and re-suspended in culture medium, and it was then transferred to a 25 cm^2 culture bottle. The purity of cell cultures was tested by immunocytochemistry using rabbit anti-human vimentin monoclonal primary antibody (Spring Bioscience TM) and rabbit anti-IgG secondary polyclonal antibody from goat labeled with Texas Red (Invitrogen®). The cells were maintained and amplified in DMEM/Ham's F12 (Gibco®) 10% FBS medium, with […] of antibiotics ampicillin and streptomycin in culture bottle until reaching the sub-confluence (90% of confluence), and then they were transferred to 96-well plates for conducting the tests for assessing antiproliferative activity. Cells were transferred to 96-well plates to a density of 10,000 cells per well in culture medium with 10% of SBF and incubated during 48 hours. […] Then, MTT tetrazolium salt was added (Invitrogen) at a concentration of 1 mg/mL, according to the incubation periods described in the manufacturer's manual. Cell proliferation was indirectly evaluated using the MTT colorimetric method (Invitrogen) and absorbance measurement at 540 nm in SpectraMax M2 plate reader-Molecular Devices with SoftMax […].2 software. By following this procedure, results of antiproliferative activity. of drugs on cells can be obtained. Data were calculated with the ratio of values obtained from cultures exposed (and in different concentrations, combined or not) and cultures not exposed to drugs. The reference of 100% of cell viability, cells cultured without the presence of drugs, was considered.

Oc1ccc(/C=C/c2cc(O)cc(O)c2)cc1 [Resveratrol, trans-3,5,4″-trihidroxystilbene]
increase (intramural myoma, treated only with resveratrol) ([1]; patient A, treated during 12 months): 32% | increase (intramural myoma, treated only with resveratrol) ([1]; patient B, treated during 3 months): 27% | increase (intramural myoma, treated only with resveratrol) ([1]; patient C, treated during 1 month): 22% | Proliferation ([2]; resveratrol alone 1.980 ng/mL, 100% = cells without drugs): 94.8% | Proliferation ([2]; resveratrol alone 19.800 ng/mL, 100% = cells without drugs): 90.6% | Proliferation ([2]; resveratrol alone 197.970 ng/mL (concentration used in the combination)): 94.7% | Proliferation ([2]; resveratrol alone 1979.130 ng/mL): 93.3% | Proliferation ([2]; resveratrol alone 19797.13 ng/mL): 91.1%
